Results from patent publication US20100034839A1, “METHODS FOR TREATING VIRAL DISORDERS” (priority 2008, published 2010).

Test system: CLIP^+ B cells in human PBMC
Assay: Peptide replacement of CLIP on R848-activated human PBMC B cells
Assay type: cell-based
Settings: PBMC of two donors cultured with R848 for 48 hours with peptide
Procedure: FIG. 13 depicts TLR activation results in ectopic CLIP expression on human B cells from peripheral blood mononuclear cells (PBMC) cultures. FIG. 13a: human PBMC from five donors were cultured for 24 hours with toll ligands (CpG-ODN, LPS, Pam3Cys, and Poly I:C) and were stained with a pan anti-HLA-DR-FITC antibody (values of isotype controls were subtracted from the specific stains, ΔMFI). FIG. 13b: cells were stained using anti-human CLIP-FITC versus CD19-PE (values of isotype controls were subtracted from the specific stains, ΔMFI). For FIGS. 13a & 13b: nil vs. CpG p=0.06821; nil vs. LPS p=0.0390; nil vs. PAM p=0.0124. FIG. 13c: cells were stained for CLIP-FITC versus CD19-PE as described for FIG. 13b. The data represent the percent of total PBMC that are CLIP+ B cells subsequent to treatment. For FIG. 13c: nil vs. CpG p=0.0058; nil vs. LPS p=0.0254. […]
PBMC were prepared from a total of seven adult normal donors, five for examining the effects of TLR binding on the percentage of ectopic CLIP^+ B cells and changes in mean fluorescence intensity of the CLIP staining resulting from TLR stimulation with CpG-ODN, LPS, Pam-3-Cys, and Poly I:C. […] Cells were analyzed using either a BD FacsCalibur, for the five samples, or a Coulter FC500 for the two tissue typed samples. […]

FRIMAVLAS
percentage of CLIP^+ B cells and level of CLIP per B cell: reduced the percentage of CLIP^+ B cells and the level of CLIP per B cell to pre-treatment levels
